Earlier results on one molecule are cited in patent US20150284900A1, “Novel Activator for Hydrogen Peroxide and Its Application” (priority 2014, published 2015).

Molecules are shown by their SMILES.

For the data set the following is noted: in water; room temperature (20° C.).

In the case of `OO` [Activator H2O2, Hydrogen peroxide], the ionization constant was 1.78×10^−12.
